These results are taken from publication PMC10269775, “Penicillin-Binding Protein Occupancy Dataset for 18 β-Lactams and 4 β-Lactamase Inhibitors in Neisseria gonorrhoeae” (Microbiology Spectrum, 2023).

Structures are written as SMILES. In brackets after ≈: the same amount, converted by molar mass. Where two headings read alike, the source gives them in different places.

For assay [1], the target named is T1, PBP2 (Neisseria gonorrhoeae, UniProt P08149, A510V/A516G/A574V/F504L/H541N/I556V/I566V/K555Q/P552V).
T1 construct: endogenous in cells; host or cells: N. gonorrhoeae ATCC 49226, isolated membrane preparation
The experiment in a line: biochemical. Type of assay: binding, Neisseria gonorrhoeae ATCC 49226.

Assay [2] deals with T2, PBP1, PBP2 and PBP3 (Neisseria gonorrhoeae, UniProt Q5FAB9).
T2 sequence (Q5FAB9 22-469): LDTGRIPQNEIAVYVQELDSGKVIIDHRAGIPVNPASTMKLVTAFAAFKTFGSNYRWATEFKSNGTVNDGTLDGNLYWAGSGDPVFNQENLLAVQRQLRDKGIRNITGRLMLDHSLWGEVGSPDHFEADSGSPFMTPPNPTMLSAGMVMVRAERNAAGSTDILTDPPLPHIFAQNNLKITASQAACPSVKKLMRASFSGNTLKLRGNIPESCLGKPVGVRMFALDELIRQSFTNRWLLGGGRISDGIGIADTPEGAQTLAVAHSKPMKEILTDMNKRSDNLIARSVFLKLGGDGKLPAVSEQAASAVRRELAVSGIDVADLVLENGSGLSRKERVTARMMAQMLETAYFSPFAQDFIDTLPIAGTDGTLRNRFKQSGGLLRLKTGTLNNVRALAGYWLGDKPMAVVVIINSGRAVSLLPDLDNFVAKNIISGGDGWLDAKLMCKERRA
Type of assay: binding, Neisseria gonorrhoeae ATCC 49226. The following applies: read-out: min. IC50 (minimum observed IC50 value); strain ATCC 49226.

The target of assay [3] is T3, PBP2 (Neisseria gonorrhoeae, UniProt P08149, H541N).
T3 construct: endogenous in cells; host or cells: N. gonorrhoeae ATCC 19424, isolated membrane preparation
The assay can be described thus: PBP-binding assay (Bocillin FL) in isolated membrane preparations. Further details: species or system Neisseria gonorrhoeae ATCC 19424.

The target in assay [4] is T4, PBP3 (Neisseria gonorrhoeae, UniProt Q5FAB9).
T4 sequence (Q5FAB9 22-469): T2 sequence (Q5FAB9 22-469)
Conditions: read-out: IC50 PBP3; strain ATCC 49226; membrane preparation, 30 min drug then Bocillin FL.

Assay [5] has as its target T5, PBP1 (Neisseria gonorrhoeae, UniProt O05131).
T5 construct: endogenous in cells; host or cells: N. gonorrhoeae ATCC 19424, isolated membrane preparation
The assay can be described thus: PBP-binding assay (Bocillin FL) in isolated membrane preparations. The following applies: strain ATCC 19424. An excerpt: (§1) Bacterial membranes were collected by ultracentrifugation.

For assay [6], the system named is PBP1, PBP2 and PBP3. Type of assay: binding, Neisseria gonorrhoeae ATCC 19424. Conditions: strain ATCC 19424.
Assay [7] addresses T6, PBP1 (Neisseria gonorrhoeae, UniProt O05131, A375T/F666S).
T6 construct: endogenous in cells; host or cells: N. gonorrhoeae ATCC 49226, isolated membrane preparation
The assay can be described thus: PBP-binding assay (Bocillin FL) in isolated membrane preparations. Also noted: species or system Neisseria gonorrhoeae ATCC 49226.
From the text: as §1

Assay [8] concerns the target T4, PBP3. The following applies: read-out: IC50 PBP3; strain ATCC 19424; membrane preparation, 30 min drug then Bocillin FL.
Assay [9] has as its system N. gonorrhoeae ATCC 19424. The assay can be described thus: MIC, CLSI broth microdilution. Type of assay: cell-based. The following applies: Neisseria gonorrhoeae. On the technique in general: Dilution methods test growth across graded concentrations, often in twofold steps.
In assay [10] the test system is N. gonorrhoeae ATCC 49226. The experiment in a line: MIC, CLSI broth microdilution. The assay is classed as cell-based, Neisseria gonorrhoeae. The following applies: Neisseria gonorrhoeae.
Assay [11] has as its target T2, PBP1, PBP2 and PBP3. Type of assay: binding, Neisseria gonorrhoeae ATCC 19424. The following applies: read-out: min. IC50 (minimum observed IC50 value); strain ATCC 19424.
Assay [12] has as its system PBP1, PBP2 and PBP3. The assay is classed as binding, Neisseria gonorrhoeae ATCC 49226. Conditions: strain ATCC 49226.
Assay [13] deals with PBP1, PBP2 and PBP3 (Neisseria gonorrhoeae, UniProt P08149, H541N). Type of assay: binding, Neisseria gonorrhoeae ATCC 19424. Conditions: read-out: min. IC50 (minimum observed IC50 value); strain ATCC 19424.
The subject of a further assay is N. gonorrhoeae. Conditions: single 2-g dose; isolates with an MIC above 0.5 mg/L; cited from earlier work.
Where [14] appears, read: IC50 PBP2, strain ATCC 49226, membrane preparation, 30 min drug then Bocillin FL.
The mark [15] stands for this setting: IC50 PBP2, strain ATCC 19424, membrane preparation, 30 min drug then Bocillin FL.
[16] abbreviates: membrane preparation, 30 min drug then Bocillin FL, read-out: IC50 PBP1 (converted).
[17] abbreviates: IC50 PBP1, strain ATCC 49226, membrane preparation, 30 min drug then Bocillin FL.
The mark [18] stands for this setting: ATCC19424, strain ATCC 19424, read-out: MIC.
Where [19] appears, read: ATCC19424, strain ATCC 19424, read-out: MIC (Table S1).
[20] abbreviates: ATCC49226, strain ATCC 49226, read-out: MIC (Table S1).
Setting [21] is: IC50 PBP2 (Table S1), strain ATCC 49226.
Where [22] appears, read: IC50 PBP2 (Table S1), strain ATCC 19424.
Setting [23] is: IC50 PBP1 (Table S1), strain ATCC 49226.
Where [24] appears, read: ATCC49226, read-out: MIC (Table S1).
Where [25] appears, read: ATCC19424, read-out: MIC (Table S1).

For orientation: IC50 means the concentration that inhibits the measured activity by half. What is called MIC is the least concentration at which growth counts as inhibited. On to `CC1(C)S[C@@H]2[C@H](NC(=O)Cc3ccccc3)C(=O)N2[C@H]1C(=O)O` [PenG, penicillin G], for which the IC50 was 0.778 µM at PBP2 [1] (setting [14]); 0.0299 µM at PBP1, PBP2 and PBP3 [2]; 0.15 µM at PBP2 [3] (setting [15]); 0.0299 µM at PBP3 [4]; 5.65 µM at PBP1 [5] (setting [16]); greater than 5.98 µM at PBP1 [7] (setting [17]). The IC50 at PBP3 [8] is 0.0598 µM. Besides, in the assay with PBP1, PBP2 and PBP3 [6], the min. IC50 (minimum observed IC50 value) amounted to 0.02 µg/mL. The minimal inhibitory concentration (MIC) in assay [9] (setting [18]) is 0.064 µg/mL (≈ 0.191 µM); in [9] (setting [19]) it was 0.063 µg/mL (≈ 0.188 µM); in [10] (ATCC49226, strain ATCC 49226, read-out: MIC), 0.125 µg/mL (≈ 0.374 µM); in assay [10] (setting [20]) it was 0.125 µg/mL (≈ 0.374 µM).
`NC(=O)[C@@H]1CC[C@@H]2CN1C(=O)N2OS(=O)(=O)O` [AVI, avibactam]: the IC50 on PBP2 [1] (setting [21]) is greater than 1930 µM; on PBP2 [1] (setting [14]), greater than 965 µM; on PBP1, PBP2 and PBP3 [2], 20.4 µM; on PBP2 [3] (setting [22]) it was 442 µM; on PBP2 [3] (setting [15]) it was 441 µM; at PBP3 [4], 20.4 µM. Further, the 50% inhibitory concentration (IC50) is greater than 1930 µM on PBP1 [5] (setting [16]); 8.78 µM on PBP1, PBP2 and PBP3 [11]; greater than 1930 µM at PBP1 [7] (setting [23]); greater than 965 µM on PBP1 [7] (setting [17]); 8.78 µM on PBP3 [8]. The MIC is 128 µg/mL (≈ 483 µM) in [9] (setting [19]), greater than 256 µg/mL in [10] (ATCC49226) and 512 µg/mL (≈ 1930 µM) in assay [10] (setting [24]).
Take `CC1(C)[C@H](C(=O)O)N2C(=O)C[C@H]2S1(=O)=O` [SUL, sulbactam]: the IC50 at PBP2 [1] (setting [14]) is 25.8 µM; at PBP2 [3] (setting [15]), 5.06 µM; on PBP3 [4], 27.3 µM; at PBP1 [5] (setting [16]), 236 µM; on PBP1 [5] (read-out: IC50 PBP1 (Table S1) (converted)), 238 µM; on PBP1, PBP2 and PBP3 [13], 5.06 µM. Further, the IC50 on PBP1 [7] (setting [23]) was 871 µM; on PBP1 [7] (setting [17]), 870 µM; on PBP3 [8], 39.9 µM. In the assay with PBP1, PBP2 and PBP3 [12], this compound displayed a min. IC50 (minimum observed IC50 value) of 6.02 µg/mL. For the same compound, the MIC in assay [9] (ATCC19424) was 0.25 µg/mL (≈ 1.07 µM); in assay [9] (setting [25]), 0.25 µg/mL (≈ 1.07 µM); in assay [10] (ATCC49226), 4 µg/mL (≈ 17.1 µM); in assay [10] (setting [24]) it was 4 µg/mL (≈ 17.1 µM).
Take `C[C@H]1[C@H](NC(=O)/C(=N\OC(C)(C)C(=O)O)c2csc(N)n2)C(=O)N1S(=O)(=O)O` [ATM, aztreonam]: the IC50 on PBP1 [5] (setting [16]) and at PBP1 [7] (setting [17]) was greater than 4.59 µM in each case. For the same compound, the cure rate in the assay on N. gonorrhoeae is 50%. Also, the MIC in [9] (setting [18]) turned out to be 0.032 µg/mL (≈ 0.0735 µM); in [9] (setting [19]), 0.032 µg/mL (≈ 0.0735 µM); in assay [10] (ATCC49226), 0.125 µg/mL (≈ 0.287 µM); in assay [10] (setting [20]), 0.25 µg/mL (≈ 0.574 µM).
On to `O=C(NC1CCNCC1)[C@@H]1CC[C@@H]2CN1C(=O)N2OS(=O)(=O)O` [REL, relebactam], for which the IC50 against PBP2 [1] (setting [21]) was greater than 1470 µM; against PBP2 [1] (setting [14]), greater than 735 µM; on PBP1, PBP2 and PBP3 [2], 3.76 µM; on PBP2 [3] (setting [22]), 1470 µM; at PBP2 [3] (setting [15]), greater than 1470 µM; at PBP3 [4], 3.76 µM. Moreover, the IC50 on PBP1 [5] (setting [16]) was greater than 1470 µM; at PBP1, PBP2 and PBP3 [11], 3.65 µM; at PBP1 [7] (setting [23]) it was greater than 1470 µM; at PBP1 [7] (setting [17]), greater than 735 µM; on PBP3 [8], 3.65 µM. For the same compound, the MIC was greater than 256 µg/mL in [9] (ATCC19424), 512 µg/mL (≈ 1470 µM) in [9] (setting [25]), greater than 256 µg/mL in assay [10] (ATCC49226) and 512 µg/mL (≈ 1470 µM) in assay [10] (setting [24]).
